Source: US8822468B2 (Novartis AG, priority 2008, dated 2014)

Molecular target: T1, cMET receptor tyrosine kinase (GST-cMET (969-1390)) (Homo sapiens, UniProt P08581)
T1 construct: made in house
Assay: EPK cMET profiling assay (LanthaScreen TR-FRET antibody based kinase phosphorylation assay)
Format: biochemical
Conditions: purified recombinant GST-cMET (969-1390), 2 μM ATP, 50 nM Fluorescein-PolyEAY, 60 minutes at room temperature; read-out: c-Met IC50
Outline: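 GST-cMET cytoplasmic domain (969-1390), 0.3 nM, phosphorylated 50 nM fluorescein-PolyEAY with 2 µM ATP, Mg2+/Mn2+, 0.6% DMSO, 60 min at room temperature. Stopped with EDTA; Tb-PY20 antibody TR-FRET single end-point read. Final compound concentrations 10 to 0.003 µM, 8 points.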

T1 sequence (P08581 969-1390): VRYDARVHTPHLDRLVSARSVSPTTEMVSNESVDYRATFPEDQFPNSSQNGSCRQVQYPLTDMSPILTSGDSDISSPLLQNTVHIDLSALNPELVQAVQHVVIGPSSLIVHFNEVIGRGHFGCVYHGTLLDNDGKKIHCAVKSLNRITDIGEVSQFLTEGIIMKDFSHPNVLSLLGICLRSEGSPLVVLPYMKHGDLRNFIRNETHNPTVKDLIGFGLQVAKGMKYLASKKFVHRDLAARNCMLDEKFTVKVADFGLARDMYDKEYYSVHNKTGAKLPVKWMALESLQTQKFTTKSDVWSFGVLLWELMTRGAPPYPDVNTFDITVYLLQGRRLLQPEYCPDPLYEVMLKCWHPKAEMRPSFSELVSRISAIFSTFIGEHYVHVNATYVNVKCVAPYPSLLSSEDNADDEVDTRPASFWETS

Question: Which IC50 does the source give for `c1cnc2ccc(Cc3cnc4ccc(-c5cnn(CCN6CCCC6)c5)nn34)cc2c1` [Example 236, 6-{6-[1-(2-Pyrrolidin-1-yl-ethyl)-1H-pyrazol-4-yl]-imidazo[1,2-b]pyridazin-3-ylmethyl}-quinoline] here?
Answer: 0.37 µM

Question: Which IC50 does the source give for `C=Cc1cnc2ccc(Cc3cnc4ccc(-c5cnn(C)c5)nn34)cn12` [Example 299, 6-(1-Methyl-1H-pyrazol-4-yl)-3-(3-vinyl-imidazo[1,2-a]pyridin-6-ylmethyl)-imidazo[1,2-b]pyridazine] here?
Answer: 0.27 µM

Question: For `C[C@@H](c1ccc2c(cnn2C)c1)c1cnc2ccc(-c3cnn(C)c3)nn12` [Example 196, 3-[(S)-1-(1-Methyl-1H-indazol-5-yl)-ethyl]-6-(1-methyl-1H-pyrazol-4-yl)-imidazo[1,2-b]pyridazine], which IC50 is on record?
Answer: 0.036 µM

Question: For `Cn1cc(-c2ccc3ncc(C(C)(O)c4cc5cccnc5cc4F)n3n2)cn1` (racemic) [Example 174, (rac)-1-(7-Fluoro-quinolin-6-yl)-1-[6-(1-methyl-1H-pyrazol-4-yl)-imidazo[1,2-b]pyridazin-3-yl]-ethanol], which IC50 is on record?
Answer: 0.12 µM

Question: For `O=C(NCCN1CCCC1)c1ccc(-c2ccc3ncc(Cc4ccc5ncccc5c4)n3n2)cc1Cl` [Example 144, 2-Chloro-N-(2-pyrrolidin-1-yl-ethyl)-4-(3-quinolin-6-ylmethyl-imidazo[1,2-b]pyridazin-6-yl)benzamide], which IC50 is on record?
Answer: 0.0032 µM

Question: Which IC50 does the source give for `c1cnc2ccc(Cc3cnc4ccc(N5CCC6(CC5)OCCO6)nn34)cc2c1` [Example 110, 6-[6-(1,4-Dioxa-8-aza-spiro[4.5]dec-8-yl)-imidazo[1,2-b]pyridazin-3-ylmethyl]-quinoline] here?
Answer: 0.042 µM

Question: With `Clc1ccccc1Nc1ccc2ncc(Cc3ccc4ncccc4c3)n2n1` [Example 128, (2-Chloro-phenyl)-(3-quinolin-6-ylmethyl-imidazo[1,2-b]pyridazin-6-yl)-amine] as the compound, how does the IC50 read?
Answer: 0.029 µM

Question: `CC(c1ccc2c(c1)CCCN2)c1cnc2ccc(-c3cnn(C)c3)nn12` (racemic) [Example 156, (rac)-6-{1-[6-(1-Methyl-1H-pyrazol-4-yl)-imidazo[1,2-b]pyridazin-3-yl]-ethyl}-1,2,3,4-tetrahydroquinoline] was tested. Which IC50 did it give?
Answer: 0.19 µM

Question: `Cn1cnc2ccc(Cc3cnc4ccc(-c5cnn(CCO)c5)nn34)cc21` [Example 217, 2-{4-[3-(3-Methyl-3H-benzoimidazol-5-ylmethyl)-imidazo[1,2-b]pyridazin-6-yl]-pyrazol-1-yl}-ethanol] was tested. Which IC50 did it give?
Answer: 0.084 µM

Question: `Cn1cc(-c2ccc3ncc(Cc4ccc5ncc(-c6cccc(C#N)c6)n5c4)n3n2)cn1` [Example 305, 3-{6-[6-(1-Methyl-1H-pyrazol-4-yl)-imidazo[1,2-b]pyridazin-3-ylmethyl]-imidazo[1,2-a]pyridin-3-yl}-benzonitrile] was tested. Which IC50 did it give?
Answer: 0.26 µM

Question: With `OCCn1cc(-c2ccc3ncc(Cc4cc5cccnc5cc4F)n3n2)cn1` [Example 254, 2-{4-[3-(7-Fluoro-quinolin-6-ylmethyl)-imidazo[1,2-b]pyridazin-6-yl]-pyrazol-1-yl}-ethanol] as the compound, how does the IC50 read?
Answer: 0.033 µM

Question: `Cn1cc(-c2ccc3ncc(Cc4ccc5ncc(C(O)CO)n5c4)n3n2)cn1` (stereo not drawn) [Example 304, 1-{6-[6-(1-Methyl-1H-pyrazol-4-yl)-imidazo[1,2-b]pyridazin-3-ylmethyl]-imidazo[1,2-a]pyridin-3-yl}-ethane-1,2-diol] was tested. Which IC50 did it give?
Answer: 0.33 µM
